Tested on: differentially expressed genes in TG
Experiment: RNAseq gene expression profiling of TG
Assay type: in vivo, mouse
Procedure: Gene expression profiling was performed on TG from mice with/without nerve injury during the acute phase (three weeks post injury) in TIC mice and after transition to chronic pain (10 weeks post injury) in FRICT-ION mice by Quick Biology Inc. (Monrovia, CA).
Total RNA from ipsilateral TG was isolated using the Rneasy Mini Kit (Qiagen, Valencia, CA). Gene expression profiling and analysis with RNA was done by Quick Biology Inc. (Monrovia, CA). RNAseq library preparation was performed by Quick Biology Inc. (Monrovia, CA), sequencing was performed using an Illumina HiSeq 4000 at 40 million reads per sample. The reads were first mapped to the latest UCSC transcript set using Bowtie2 version 2.1.0 and the gene expression level was estimated using RSEM v1.2.15. Differentially expressed genes were identified using the edgeR program. Genes showing altered expression with p<0.05 were considered differentially expressed.

[1] = LMK235-Treated FRICT-ION Vs Naive
[2] = LMK235-Treated FRICT-ION Vs Untreated FRICT-ION

## Cc1cc(C)cc(C(=O)NOCCCCCC(=O)NO)c1 [LMK235, N-[[6-(Hydroxyamino)-6-oxohexyl]oxy]-3,5-dimethyl-benzamide]
[1]
  Fold-change Arfgef2: 1.02
  Fold-change Astn2: 1.04
  Fold-change Bmp2: 1.11
  Fold-change Bmp3: −1.23
  Fold-change Bmp4: 1.18
  Fold-change Bmp5: 1.85
  Fold-change Cacna1a: −1.06
  Fold-change Cacna1g: −1.00
  Fold-change Cacna1i: −1.14
  Fold-change Cacna1h: −1.11
  Fold-change Cacna1d: −1.03
  Fold-change Cacnb1: −1.02
  Fold-change Clcn1: −1.33
  Fold-change Clcn2: −1.11
  Fold-change Clic5: −1.08
  Fold-change Eef2: −1.05
  Fold-change Gabra5: 1.02
  Fold-change Gabra6: 1.18
  Fold-change Gabre: −1.22
  Fold-change Gabrg1: 1.26
  Fold-change Jakmip1: 1.02
  Fold-change Kcna5: −1.06
  Fold-change Kcnc3: −1.05
  Fold-change Kcnd2: 1.09
  Fold-change Kcnh2: −1.06
  Fold-change Kcnh7: 1.03
  Fold-change Kcnj6: −1.10
  Fold-change Kcnk1: −1.02
  Fold-change Kcns2: 1.12
  Fold-change Kcnv1: 1.26
  Fold-change Kif1b: 1.01
  Fold-change Maoa: 1.08
  Fold-change Mapk3: −1.02
  Fold-change Mpz: 1.07
  Fold-change Nacc2: −1.05
  Fold-change Nav3: 1.12
  Fold-change Ncald: 1.05
  Fold-change Ndnf: 1.31
  Fold-change Net1: −1.11
  Fold-change Neurod4: −1.13
  Fold-change Nf2: −1.02
  Fold-change Nfasc: −1.09
  Fold-change Ngef: −1.06
  Fold-change Nkain2: 1.05
  Fold-change Nova1: 1.04
  Fold-change Nras: −1.00
  Fold-change Nrep: 1.04
  Fold-change Nrg2: 1.04
  Fold-change Nrg3: 1.09
  Fold-change Nrp2: 1.07
  Fold-change Ntrk1: −1.09
  Fold-change Nts: 1.18
  Fold-change Plcl1: 1.12
  Fold-change Scn2a1: 1.10
  Fold-change Scn3a: 1.11
  Fold-change Scn5a: 1.23
  Fold-change Scn7a: 1.07
  Fold-change Scn8a: −1.07
  Fold-change Scn9a: 1.01
  Fold-change Slc6a4: −1.11
  Fold-change Trak1: −1.05
  Fold-change Trpc6: −1.08
  Fold-change Trpm2: −1.10
  Fold-change Trpm3: 1.12
  Fold-change Trpm4: −1.14
  Fold-change Trpm7: 1.10
  Fold-change Trps1: 1.14
  Fold-change Trpv4: 2.12
  Fold-change Trpv6: −1.07
  Fold-change Unc80: 1.07
[2]
  Fold-change Arfgef2: 1.01
  Fold-change Astn2: 1.0
  Fold-change Bmp2: −1.02
  Fold-change Bmp3: −2.70
  Fold-change Bmp4: 1.05
  Fold-change Bmp5: −1.01
  Fold-change Cacna1a: −1.16
  Fold-change Cacna1g: −1.43
  Fold-change Cacna1i: −1.39
  Fold-change Cacna1h: −1.49
  Fold-change Cacna1d: −1.04
  Fold-change Cacnb1: −1.13
  Fold-change Clcn1: −1.05
